Assay results taken from ChEMBL document CHEMBL1151900, “Steroidal bivalent ligands for the estrogen receptor: design, synthesis, characterization and binding affinities” (Bioorg Med Chem, 2009).

How the values were obtained:
[1] = biological target: Estrogen receptor beta (Homo sapiens) (UniProt Q92731); assay: Displacement of [3H]estradiol from full-length human estrogen receptor beta by radiometric assay relative to estradiol
[2] = biological target: T1, Estrogen receptor (Homo sapiens) (UniProt P03372); assay: Displacement of [3H]estradiol from full-length human estrogen receptor alpha by radiometric assay relative to estradiol
T1 sequence (whole entry): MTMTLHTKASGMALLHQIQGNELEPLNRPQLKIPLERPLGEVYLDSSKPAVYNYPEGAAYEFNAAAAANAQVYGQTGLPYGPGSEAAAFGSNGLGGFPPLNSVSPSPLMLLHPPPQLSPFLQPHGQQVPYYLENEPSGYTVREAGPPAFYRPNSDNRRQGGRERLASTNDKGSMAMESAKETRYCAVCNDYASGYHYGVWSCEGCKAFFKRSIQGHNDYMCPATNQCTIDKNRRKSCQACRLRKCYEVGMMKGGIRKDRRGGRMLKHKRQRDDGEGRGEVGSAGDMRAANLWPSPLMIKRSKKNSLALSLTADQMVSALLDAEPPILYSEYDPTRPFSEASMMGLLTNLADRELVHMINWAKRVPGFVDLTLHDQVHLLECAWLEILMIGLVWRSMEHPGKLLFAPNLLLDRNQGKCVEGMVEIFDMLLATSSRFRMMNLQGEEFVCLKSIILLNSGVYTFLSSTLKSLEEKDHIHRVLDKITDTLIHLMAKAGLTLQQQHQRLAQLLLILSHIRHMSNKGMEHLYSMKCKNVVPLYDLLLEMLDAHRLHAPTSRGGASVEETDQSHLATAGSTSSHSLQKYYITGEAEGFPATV

Estrogen receptor beta (Homo sapiens), sequence (Q92731 whole entry): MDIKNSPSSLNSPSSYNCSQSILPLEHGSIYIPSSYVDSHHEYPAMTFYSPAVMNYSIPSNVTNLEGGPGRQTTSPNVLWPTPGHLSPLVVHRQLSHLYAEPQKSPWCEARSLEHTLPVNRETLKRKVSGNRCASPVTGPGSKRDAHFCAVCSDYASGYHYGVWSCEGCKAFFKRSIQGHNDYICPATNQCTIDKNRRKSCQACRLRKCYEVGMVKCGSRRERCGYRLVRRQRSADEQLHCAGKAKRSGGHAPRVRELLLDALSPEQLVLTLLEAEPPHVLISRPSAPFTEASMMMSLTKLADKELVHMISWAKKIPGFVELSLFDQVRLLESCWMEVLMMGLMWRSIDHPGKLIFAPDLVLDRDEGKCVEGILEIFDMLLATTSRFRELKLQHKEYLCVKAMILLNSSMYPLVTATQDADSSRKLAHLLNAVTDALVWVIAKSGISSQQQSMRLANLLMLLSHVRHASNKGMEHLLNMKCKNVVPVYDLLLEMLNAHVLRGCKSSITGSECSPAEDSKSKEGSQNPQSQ

Question: How did the RBA [1] turn out when C[C@]12CC[C@@H]3c4ccc(O)cc4CC[C@H]3[C@@H]1CC[C@@]2(O)C#Cc1ccc(CNCCOCCOCCOCCOCCOCCNCc2ccc(C#C[C@]3(O)CC[C@H]4[C@@H]5CCc6cc(O)ccc6[C@H]5CC[C@@]43C)cc2)cc1 was run?
Answer: 3.6%

Question: And the RBA [2]?
Answer: 6.8%

Question: Which results are given for C[C@]12CC[C@@H]3c4ccc(O)cc4CC[C@H]3[C@@H]1CC[C@@]2(O)C#Cc1ccc(OCCCOCCCOCCCOCCCOc2ccc(C#C[C@]3(O)CC[C@H]4[C@@H]5CCc6cc(O)ccc6[C@H]5CC[C@@]43C)cc2)cc1?
Answer: RBA [1]: 0.003%; RBA [2]: 6.9%

Question: Which RBA [1] does the source give for C[C@]12CC[C@@H]3c4ccc(O)cc4CC[C@H]3[C@@H]1CC[C@@]2(O)C#Cc1ccc(OCCCCOCCCCOCCCCOCCCCOc2ccc(C#C[C@]3(O)CC[C@H]4[C@@H]5CCc6cc(O)ccc6[C@H]5CC[C@@]43C)cc2)cc1 here?
Answer: 0.76%

Question: What about the RBA [2] of the same compound?
Answer: 2.6%

Question: How did the RBA [1] turn out when C[C@]12CC[C@@H]3c4ccc(O)cc4CC[C@H]3[C@@H]1CC[C@@]2(O)C#Cc1ccc(OCCCOCCCOCCCOCCCOCCCOCCCOc2ccc(C#C[C@]3(O)CC[C@H]4[C@@H]5CCc6cc(O)ccc6[C@H]5CC[C@@]43C)cc2)cc1 was run?
Answer: 0.38%

Question: And the RBA [2]?
Answer: 1.5%

Question: For C[C@]12CC[C@@H]3c4ccc(O)cc4CC[C@H]3[C@@H]1CC[C@@]2(O)C#Cc1ccc(OCCOCCOCCOCCOCCOCCOc2ccc(C#C[C@]3(O)CC[C@H]4[C@@H]5CCc6cc(O)ccc6[C@H]5CC[C@@]43C)cc2)cc1, which RBA [1] is on record?
Answer: 0.68%

Question: What about the RBA [2] of the same compound?
Answer: 1.2%

Question: C[C@]12CC[C@@H]3c4ccc(O)cc4CC[C@H]3[C@@H]1CC[C@@]2(O)C#Cc1ccc(OCCCCOCCCCOCCCCOc2ccc(C#C[C@]3(O)CC[C@H]4[C@@H]5CCc6cc(O)ccc6[C@H]5CC[C@@]43C)cc2)cc1 was tested. Which RBA [1] did it give?
Answer: 1.5%

Question: What about the RBA [2] of the same compound?
Answer: 4.5%

Question: Which RBA [1] does the source give for C[C@]12CC[C@@H]3c4ccc(O)cc4CC[C@H]3[C@@H]1CC[C@@]2(O)C#Cc1ccc(OCCCOCCCOCCCOCCCOCCCOc2ccc(C#C[C@]3(O)CC[C@H]4[C@@H]5CCc6cc(O)ccc6[C@H]5CC[C@@]43C)cc2)cc1 here?
Answer: 0.69%

Question: What about the RBA [2] of the same compound?
Answer: 2.3%

Question: Which results are given for C[C@]12CC[C@@H]3c4ccc(O)cc4CC[C@H]3[C@@H]1CC[C@@]2(O)C#Cc1ccc(OCCCOCCCOCCCOc2ccc(C#C[C@]3(O)CC[C@H]4[C@@H]5CCc6cc(O)ccc6[C@H]5CC[C@@]43C)cc2)cc1?
Answer: RBA [1]: 0.53%; RBA [2]: 2.1%

Question: How did the RBA [1] turn out when C[C@]12CC[C@@H]3c4ccc(O)cc4CC[C@H]3[C@@H]1CC[C@@]2(O)C#Cc1ccc(OCCCCOCCCCOc2ccc(C#C[C@]3(O)CC[C@H]4[C@@H]5CCc6cc(O)ccc6[C@H]5CC[C@@]43C)cc2)cc1 was run?
Answer: 0.82%

Question: What about the RBA [2] of the same compound?
Answer: 1.8%

Question: How did the RBA [1] turn out when C[C@]12CC[C@@H]3c4ccc(O)cc4CC[C@H]3[C@@H]1CC[C@@]2(O)C#Cc1ccc(OCCCCOCCCCOCCCCOCCCCOCCCOc2ccc(C#C[C@]3(O)CC[C@H]4[C@@H]5CCc6cc(O)ccc6[C@H]5CC[C@@]43C)cc2)cc1 was run?
Answer: 0.22%

Question: And the RBA [2]?
Answer: 1.6%

Question: Which results are given for C[C@]12CC[C@@H]3c4ccc(O)cc4CC[C@H]3[C@@H]1CC[C@@]2(O)C#Cc1ccc(OCCCOCCCOc2ccc(C#C[C@]3(O)CC[C@H]4[C@@H]5CCc6cc(O)ccc6[C@H]5CC[C@@]43C)cc2)cc1?
Answer: RBA [1]: 0.38%; RBA [2]: 0.9%
